Tests used:
Enterococcus faecium [1] = assay: Evaluated for the bacterial growth inhibition and the concentration required for 50% inhibition against Streptococcus faecium ATCC 8043 strain; format: functional, organism-based
Enterococcus faecium [2] = assay: Evaluated for the bacterial growth inhibition and the concentration required for 50% inhibition against Streptococcus faecium (MTX resistant); format: functional, organism-based

SMILES	Concentration (Enterococcus faecium [1]) [ng/mL]	Concentration (Enterococcus faecium [2]) [ng/mL]
Nc1nc(O)c2nc(CCNC3CCC(C(=O)O)CC3)cnc2n1 (configuration not stated)	> 2000	> 2000
Nc1nc(O)c2c(n1)NCC(CCNC1CCC(C(=O)O)CC1)=N2 (configuration not stated)	130	> 2000
Nc1nc(O)c2nc(CCN[C@H]3CC[C@@H](C(=O)NC(CCC(=O)O)C(=O)O)CC3)cnc2n1 (some centres not stated)	2000	> 2000
Nc1nc(O)c2c(n1)NCC(CCN[C@H]1CC[C@@H](C(=O)NC(CCC(=O)O)C(=O)O)CC1)=N2 (some centres not stated)	30	> 2000
Nc1nc(O)c2c(n1)NCC(CCNC1CCC(C(=O)O)CC1)N2 (configuration not stated)	260	> 2000
Nc1nc(O)c2c(n1)NCC(CCN[C@H]1CC[C@@H](C(=O)NC(CCC(=O)O)C(=O)O)CC1)N2 (some centres not stated)	38	> 2000

Source: ChEMBL document CHEMBL1122428, “Folate analogues. 20. Synthesis and antifolate activity of 1',2',3',4',5',6'-hexahydrohomofolic acid” (J Med Chem, 1983)
